Test [1] deals with T1, EZH2/KMT6 (5 component complex) (Homo sapiens, UniProt Q15910).
T1 construct: including EZH2 residues 2–746, AEBP2 2–517, EED 2–441; His (N); purchased Reaction Biology Corporation
Briefly: HotSpot KMT activity assay, EZH2. In kind it is biochemical. Conditions: read-out: % EZH2 residual activity. On the procedure:
Then, ^3H-SAM (final concentration 1 μM) was delivered into the reaction mixture to initiate the reaction. After incubation for 60 min at 30 °C, the reaction mixture was delivered to filter paper for detection (as assessed by scintillation). […] No inhibitor control (DMSO) was considered as showing 100% enzyme activity. Data were analyzed using Excel and GraphPad Prism 6.0 software (GraphPad Software Inc., San Diego, CA). Values obtained for each compound are mean ± SD determined for two separate experiments.

The next test deals with T2, SMYD3/KMT3E (Homo sapiens, UniProt Q9H7B4).
T2 construct: the human recombinant SMYD3 (residues 2–428, C-terminus); C-terminal His-tag; His (C); purchased Reaction Biology Corporation
T2 sequence (Q9H7B4 2-428): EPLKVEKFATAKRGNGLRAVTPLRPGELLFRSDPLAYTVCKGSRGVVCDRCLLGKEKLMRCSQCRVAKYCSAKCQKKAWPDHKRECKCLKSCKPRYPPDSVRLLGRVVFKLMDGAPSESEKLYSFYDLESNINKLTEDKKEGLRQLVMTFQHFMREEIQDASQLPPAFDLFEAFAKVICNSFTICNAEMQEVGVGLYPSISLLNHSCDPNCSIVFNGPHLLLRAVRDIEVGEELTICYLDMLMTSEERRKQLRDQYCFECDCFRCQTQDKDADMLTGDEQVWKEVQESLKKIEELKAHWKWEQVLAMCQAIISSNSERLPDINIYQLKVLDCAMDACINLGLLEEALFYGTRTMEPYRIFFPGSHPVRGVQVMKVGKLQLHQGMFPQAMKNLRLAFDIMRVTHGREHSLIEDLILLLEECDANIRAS
The test can be described thus: HotSpot KMT activity assay, SMYD3. In kind it is biochemical. Conditions: read-out: % SMYD3 residual activity. An excerpt:
; MW = 35.4 kDa; Genbank Accession # NM_018489), or the human recombinant EZH2-containing five-member polycomb repressive complex 2 (including EZH2 residues 2–746, AEBP2 2–517, EED 2–441, RbAp48 2–425, SUZ12 2–739; all full-length; with N-terminal Flag-tag on EED and N-terminal His-tag on all others; MW = 333.8 kDa; Genbank Accession # NM_001203247, NM_001114176, NM_003797, NM_005610, NM_015355), or the human recombinant G9a (residues 913–1193, C-terminus; with an N-terminal His-tag; MW = 34.6 kDa; Genbank Accession # NM_006709.3), or the human recombinant MLL1 complex (including MLL1 residues 3745–3969, C-terminus, WDR5 22–334, C-terminus, RbBP5 1–538, C-terminus, ASH2L 2–534, C-terminus, DPY-30 1–99, C-terminus; N-terminal His-tag on all subunits; MW = 212.0 kDa; Genbank Accession # NM_005933, NM_017588, NM_005057, NM_001105214, NM_0325742), or the human recombinant SET7/9 (residues 2–366, C-terminus; with a N-terminal GST-tag and a C-terminal His-tag; MW = 68.5 kDa; Genbank Accession # NM_030648), or the human recombinant SMYD3 (residues 2–428, C-terminus; C-terminal His-tag; MW = 50.1 kDa; Genbank Accession # NM_001167740), or the human recombinant SUV39H2 (residues 46–410, C-terminus; N-terminal fusion protein with a C-terminal His-tag; MW = 98.8 kDa; GenBank Accession No. NM_001193424), or the human recombinant DOT1L (residues 1–416; N-terminal GST-tag; MW = 80.0 kDa; Genbank Accession # NM_032482) was added to a solution of the proper substrate (oligo nucleosomes for ASH1L, MLL1 complex, and DOT1L, final concentration 0.05 mg/mL; core histone for EZH2 complex and SET7/9, final concentration 0.05 mg/mL; histone H3 for SUV39H2, final concentration 5 μM; histone H3 1–21 for G9a, final concentration 2.5 μM) in freshly prepared reaction buffer (50 mM Tris-HCl (pH 8.5), 5 mM MgCl2, 50 mM NaCl, 1 mM DTT, 1 mM PMSF, 1% DMSO) and gently mixed. […] After incubation for 60 min at 30 °C, the reaction mixture was delivered to filter paper for detection (as assessed by scintillation). […] Values obtained for each compound are mean ± SD determined for two separate experiments.

T1 sequence (Q15910 2-746): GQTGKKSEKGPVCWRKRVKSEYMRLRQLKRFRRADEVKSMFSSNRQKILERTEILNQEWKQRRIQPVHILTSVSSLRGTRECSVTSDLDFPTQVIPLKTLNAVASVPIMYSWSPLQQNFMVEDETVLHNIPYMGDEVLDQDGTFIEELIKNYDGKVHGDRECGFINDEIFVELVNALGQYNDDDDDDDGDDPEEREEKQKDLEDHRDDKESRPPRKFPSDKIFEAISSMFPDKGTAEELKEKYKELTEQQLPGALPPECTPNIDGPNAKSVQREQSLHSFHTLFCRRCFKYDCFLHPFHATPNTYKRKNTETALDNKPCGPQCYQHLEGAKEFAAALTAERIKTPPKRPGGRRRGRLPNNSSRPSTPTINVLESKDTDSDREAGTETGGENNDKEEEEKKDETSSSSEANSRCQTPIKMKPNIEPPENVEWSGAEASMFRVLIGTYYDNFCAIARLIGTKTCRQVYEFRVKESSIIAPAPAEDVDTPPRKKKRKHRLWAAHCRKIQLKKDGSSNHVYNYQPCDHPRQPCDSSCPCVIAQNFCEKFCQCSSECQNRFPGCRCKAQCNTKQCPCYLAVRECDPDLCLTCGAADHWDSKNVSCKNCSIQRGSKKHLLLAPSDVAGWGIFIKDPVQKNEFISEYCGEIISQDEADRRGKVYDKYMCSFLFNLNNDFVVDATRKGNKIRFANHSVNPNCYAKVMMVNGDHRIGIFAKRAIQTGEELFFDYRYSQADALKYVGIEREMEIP
T1 sequence (Q6ZN18 2-517 partner limits assumed): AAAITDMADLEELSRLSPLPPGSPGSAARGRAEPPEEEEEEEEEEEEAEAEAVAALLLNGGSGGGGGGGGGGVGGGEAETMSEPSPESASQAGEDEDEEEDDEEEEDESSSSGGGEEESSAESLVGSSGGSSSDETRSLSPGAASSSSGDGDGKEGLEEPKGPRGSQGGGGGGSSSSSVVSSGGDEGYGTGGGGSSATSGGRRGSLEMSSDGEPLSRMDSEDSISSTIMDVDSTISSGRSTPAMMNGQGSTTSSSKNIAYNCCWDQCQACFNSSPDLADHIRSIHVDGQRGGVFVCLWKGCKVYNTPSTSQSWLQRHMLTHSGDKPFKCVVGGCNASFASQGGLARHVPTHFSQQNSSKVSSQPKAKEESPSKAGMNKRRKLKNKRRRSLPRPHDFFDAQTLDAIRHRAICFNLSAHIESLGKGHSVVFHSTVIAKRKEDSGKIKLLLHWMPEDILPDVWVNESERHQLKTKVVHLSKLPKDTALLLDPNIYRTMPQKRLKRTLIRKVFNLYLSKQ
T1 sequence (O75530 2-441 partner limits assumed): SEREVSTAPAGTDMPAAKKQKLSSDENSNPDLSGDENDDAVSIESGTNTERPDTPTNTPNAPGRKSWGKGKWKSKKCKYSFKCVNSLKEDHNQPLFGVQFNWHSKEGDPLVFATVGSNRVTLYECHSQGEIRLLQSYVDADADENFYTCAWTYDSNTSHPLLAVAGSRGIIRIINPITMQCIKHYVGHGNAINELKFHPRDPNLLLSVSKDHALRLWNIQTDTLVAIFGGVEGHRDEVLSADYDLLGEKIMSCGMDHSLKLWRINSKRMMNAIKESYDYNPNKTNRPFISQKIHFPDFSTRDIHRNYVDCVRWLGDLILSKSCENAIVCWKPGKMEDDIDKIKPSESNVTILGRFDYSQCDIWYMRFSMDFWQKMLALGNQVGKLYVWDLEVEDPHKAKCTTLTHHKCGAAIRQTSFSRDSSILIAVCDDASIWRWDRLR
T1 sequence (Q09028 2-425 partner limits assumed): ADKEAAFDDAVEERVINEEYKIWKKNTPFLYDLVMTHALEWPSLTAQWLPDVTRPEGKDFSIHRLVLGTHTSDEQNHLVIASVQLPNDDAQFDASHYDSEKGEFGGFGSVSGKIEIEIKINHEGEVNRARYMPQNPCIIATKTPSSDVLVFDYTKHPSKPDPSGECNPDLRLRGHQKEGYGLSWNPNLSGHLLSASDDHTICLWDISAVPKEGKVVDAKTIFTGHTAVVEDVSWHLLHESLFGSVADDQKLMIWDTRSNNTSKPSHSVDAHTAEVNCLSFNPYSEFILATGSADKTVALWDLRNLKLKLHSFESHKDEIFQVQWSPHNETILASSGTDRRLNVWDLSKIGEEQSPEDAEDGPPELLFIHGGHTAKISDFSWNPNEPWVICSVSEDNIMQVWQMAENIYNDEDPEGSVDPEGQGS
T1 sequence (Q15022 2-739 partner limits assumed): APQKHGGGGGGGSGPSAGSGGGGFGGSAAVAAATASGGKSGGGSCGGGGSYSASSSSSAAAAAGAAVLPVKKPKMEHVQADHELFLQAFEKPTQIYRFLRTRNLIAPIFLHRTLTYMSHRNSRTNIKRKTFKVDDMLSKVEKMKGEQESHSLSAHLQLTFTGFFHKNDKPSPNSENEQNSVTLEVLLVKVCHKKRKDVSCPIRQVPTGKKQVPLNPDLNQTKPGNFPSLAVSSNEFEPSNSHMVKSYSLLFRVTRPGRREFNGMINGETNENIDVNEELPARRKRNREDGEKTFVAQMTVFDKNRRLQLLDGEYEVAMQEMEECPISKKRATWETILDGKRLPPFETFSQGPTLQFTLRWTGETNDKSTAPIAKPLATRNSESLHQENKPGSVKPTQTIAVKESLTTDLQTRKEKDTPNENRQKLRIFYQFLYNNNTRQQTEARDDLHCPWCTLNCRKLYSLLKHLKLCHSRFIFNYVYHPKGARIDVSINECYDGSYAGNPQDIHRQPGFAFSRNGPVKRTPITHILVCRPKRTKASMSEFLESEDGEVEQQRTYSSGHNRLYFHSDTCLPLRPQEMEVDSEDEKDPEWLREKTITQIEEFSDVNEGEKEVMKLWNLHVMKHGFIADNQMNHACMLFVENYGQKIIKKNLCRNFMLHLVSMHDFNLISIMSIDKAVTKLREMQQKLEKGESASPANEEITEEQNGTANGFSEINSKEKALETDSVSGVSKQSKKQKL

As to `COC(=O)c1cc(O)c2cc(NC(=O)NCCCNC(=N)NC[C@H]3O[C@@H](n4cnc5c(N)ncnc54)[C@H](O)[C@@H]3O)cc(C(F)(F)F)c2c1` [1j, Methyl 6-(3-(3-(3-(((2R,3S,4R,5R)-5-(6-Amino-9H-purin-9-yl)-3,4-dihydroxytetrahydrofuran-2-yl)methyl)guanidino)propyl)ureido)-4-hydroxy-8-(trifluoromethyl)-2-naphthoate], the remaining activity at 10 µM in test [1] (10 μM) was found to be 104.5 ± 0.99%; at SMYD3/KMT3E (10 μM), 99.1 ± 1.41%. In addition, the remaining activity at 100 µM in test [1] (100 μM) was 77.6 ± 3.43%; at SMYD3/KMT3E (100 μM), 74.2 ± 1.8%.

The values are drawn from PMC10578352, “Identification of a Protein Arginine Methyltransferase 7 (PRMT7)/Protein Arginine Methyltransferase 9 (PRMT9) Inhibitor” (Journal of Medicinal Chemistry, 2023).
